According to paper PMC9736855, “Discovery of 3-Amino-1H-pyrazole-Based Kinase Inhibitors to Illuminate the Understudied PCTAIRE Family” (International Journal of Molecular Sciences, 2022):
Where “and” joins values, the source holds several entries; their conditions need not be identical. Equal entries are not always repeated.

Experiments:
Assay type in all cases: binding
MAP2K4 = biological target: T1, MAP2K4 (Homo sapiens, UniProt P45985); test: DSF
T1 construct: purchased in-house DSF panel (SGC Frankfurt)
T1 sequence (P45985 102-367): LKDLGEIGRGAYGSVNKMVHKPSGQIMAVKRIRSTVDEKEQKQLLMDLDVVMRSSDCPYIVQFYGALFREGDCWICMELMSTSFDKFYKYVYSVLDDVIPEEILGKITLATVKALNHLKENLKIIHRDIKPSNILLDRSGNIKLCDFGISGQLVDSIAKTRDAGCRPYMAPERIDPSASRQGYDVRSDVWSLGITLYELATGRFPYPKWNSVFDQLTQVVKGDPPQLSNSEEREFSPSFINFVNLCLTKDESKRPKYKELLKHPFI
Procedure: (§2) Recombinant protein kinase domains with a concentration of 2 μM were mixed with a 10 μM compound solution in DMSO, 20 mM HEPES, pH 7.5, and 500 mM NaCl. SYPRO Orange (5000×, Invitrogen) was added as a fluorescence probe (1 µl per mL). Subsequently, temperature-dependent protein unfolding profiles were measured, using the QuantStudio™ 5 realtime PCR machine (Thermo Fisher, Waltham, MA, USA). […] The temperature was raised with a step rate of 3 °C per minute. Data points were analyzed with the internal software (Thermal Shift SoftwareTM Version 1.4, Thermo Fisher) using the Boltzmann equation to determine the inflection point of the transition curve [56]. Differences in melting temperature are given as ΔTm values in °C. Measurements were performed in duplicates.

SRC = biological target: T2, SRC (Homo sapiens, UniProt P12931); test: DSF;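 also: compound tested at 10 µM with 2 µM protein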
T2 construct: purchased in-house DSF panel (SGC Frankfurt)
T2 sequence (P12931 254-536): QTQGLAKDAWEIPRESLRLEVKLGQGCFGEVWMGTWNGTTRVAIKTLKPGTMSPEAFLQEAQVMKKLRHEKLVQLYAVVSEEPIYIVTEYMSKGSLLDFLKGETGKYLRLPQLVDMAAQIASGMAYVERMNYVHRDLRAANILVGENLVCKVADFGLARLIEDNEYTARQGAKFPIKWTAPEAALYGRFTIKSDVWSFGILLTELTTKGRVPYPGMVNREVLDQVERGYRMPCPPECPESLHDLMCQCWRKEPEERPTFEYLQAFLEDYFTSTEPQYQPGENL
Procedure: as §2

FGFR2 = biological target: T3, FGFR2 (Homo sapiens, UniProt P21802); test: DSF;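 also: compound tested at 10 µM with 2 µM protein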
T3 construct: purchased in-house DSF panel (SGC Frankfurt)
T3 sequence (P21802 458-770): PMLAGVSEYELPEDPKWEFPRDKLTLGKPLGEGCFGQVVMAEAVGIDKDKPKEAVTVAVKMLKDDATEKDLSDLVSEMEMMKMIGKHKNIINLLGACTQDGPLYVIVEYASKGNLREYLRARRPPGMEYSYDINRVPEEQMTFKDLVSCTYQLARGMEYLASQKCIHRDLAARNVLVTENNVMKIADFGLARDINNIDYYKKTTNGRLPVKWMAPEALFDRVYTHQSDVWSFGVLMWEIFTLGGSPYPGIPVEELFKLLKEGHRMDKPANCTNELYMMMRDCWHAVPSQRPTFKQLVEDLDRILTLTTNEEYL
Procedure: as §2

MAPK9 = biological target: T4, MAPK9 (Homo sapiens, UniProt P45984); test: DSF;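 also: compound tested at 10 µM with 2 µM protein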
T4 construct: purchased in-house DSF panel (SGC Frankfurt)
T4 sequence (P45984 1-364): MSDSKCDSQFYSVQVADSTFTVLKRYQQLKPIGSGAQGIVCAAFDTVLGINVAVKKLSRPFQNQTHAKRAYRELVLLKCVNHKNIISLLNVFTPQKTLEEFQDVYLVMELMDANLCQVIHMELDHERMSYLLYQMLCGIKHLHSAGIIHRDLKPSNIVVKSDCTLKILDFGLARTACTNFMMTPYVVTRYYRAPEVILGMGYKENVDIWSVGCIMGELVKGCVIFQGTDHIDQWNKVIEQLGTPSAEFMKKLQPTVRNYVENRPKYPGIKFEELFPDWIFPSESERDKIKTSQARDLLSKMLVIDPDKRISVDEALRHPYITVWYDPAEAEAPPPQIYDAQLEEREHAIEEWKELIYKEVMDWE
Procedure: as §2

STK17B = biological target: T5, STK17B (Homo sapiens, UniProt O94768); test: DSF
T5 construct: purchased in-house DSF panel (SGC Frankfurt)
T5 sequence (O94768 25-329): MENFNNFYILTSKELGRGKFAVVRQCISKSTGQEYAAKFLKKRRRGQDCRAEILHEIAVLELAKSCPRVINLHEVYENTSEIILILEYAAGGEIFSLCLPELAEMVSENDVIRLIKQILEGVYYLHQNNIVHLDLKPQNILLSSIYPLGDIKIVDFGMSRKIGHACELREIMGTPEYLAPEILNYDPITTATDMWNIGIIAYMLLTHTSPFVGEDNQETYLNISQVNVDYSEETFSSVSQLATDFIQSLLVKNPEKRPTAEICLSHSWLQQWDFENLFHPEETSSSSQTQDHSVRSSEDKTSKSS
Procedure: as §2

DYRK2 = biological target: T6, DYRK2 (Homo sapiens, UniProt Q92630); test: DSF
T6 construct: purchased in-house DSF panel (SGC Frankfurt)
T6 sequence (Q92630 1-601): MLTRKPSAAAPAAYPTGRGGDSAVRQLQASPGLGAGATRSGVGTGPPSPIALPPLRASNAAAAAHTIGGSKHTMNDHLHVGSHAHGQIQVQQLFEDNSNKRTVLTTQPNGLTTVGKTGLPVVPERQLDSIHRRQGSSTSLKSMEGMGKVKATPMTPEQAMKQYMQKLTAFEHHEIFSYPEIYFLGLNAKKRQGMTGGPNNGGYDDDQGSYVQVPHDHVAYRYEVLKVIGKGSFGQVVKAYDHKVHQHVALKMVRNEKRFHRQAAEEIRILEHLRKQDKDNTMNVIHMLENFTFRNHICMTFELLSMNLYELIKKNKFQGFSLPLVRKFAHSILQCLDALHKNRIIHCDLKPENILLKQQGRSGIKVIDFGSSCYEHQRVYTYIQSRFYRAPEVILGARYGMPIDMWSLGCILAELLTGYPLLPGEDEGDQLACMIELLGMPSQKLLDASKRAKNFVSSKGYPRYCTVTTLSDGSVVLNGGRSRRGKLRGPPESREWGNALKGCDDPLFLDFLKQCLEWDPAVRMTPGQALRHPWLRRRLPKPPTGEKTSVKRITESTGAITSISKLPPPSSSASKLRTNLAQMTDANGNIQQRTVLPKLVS
Procedure: as §2

GAK = biological target: T7, GAK (Homo sapiens, UniProt O14976); test: DSF
T7 construct: purchased in-house DSF panel (SGC Frankfurt)
T7 sequence (O14976 14-351): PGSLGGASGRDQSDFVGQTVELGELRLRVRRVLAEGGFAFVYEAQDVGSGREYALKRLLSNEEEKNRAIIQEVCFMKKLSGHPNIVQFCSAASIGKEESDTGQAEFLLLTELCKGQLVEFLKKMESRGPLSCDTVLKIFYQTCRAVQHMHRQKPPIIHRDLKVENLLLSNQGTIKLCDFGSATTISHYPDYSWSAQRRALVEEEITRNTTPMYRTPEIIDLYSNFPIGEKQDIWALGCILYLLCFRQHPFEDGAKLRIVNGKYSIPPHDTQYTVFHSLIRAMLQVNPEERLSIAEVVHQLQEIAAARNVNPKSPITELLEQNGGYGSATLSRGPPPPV
Procedure: (§1) Recombinant protein kinase domains with a concentration of 2 μM were mixed with a 10 μM compound solution in DMSO, 20 mM HEPES, pH 7.5, and 500 mM NaCl. SYPRO Orange (5000×, Invitrogen) was added as a fluorescence probe (1 µl per mL). Subsequently, temperature-dependent protein unfolding profiles were measured, using the QuantStudio™ 5 realtime PCR machine (Thermo Fisher, Waltham, MA, USA). […] The temperature was raised with a step rate of 3 °C per minute. Data points were analyzed with the internal software (Thermal Shift SoftwareTM Version 1.4, Thermo Fisher) using the Boltzmann equation to determine the inflection point of the transition curve. Differences in melting temperature are given as ΔTm values in °C. Measurements were performed in duplicates.

CAMK1G = biological target: T8, CAMK1G (Homo sapiens, UniProt Q96NX5); test: DSF
T8 construct: purchased in-house DSF panel (SGC Frankfurt)
T8 sequence (Q96NX5 whole entry): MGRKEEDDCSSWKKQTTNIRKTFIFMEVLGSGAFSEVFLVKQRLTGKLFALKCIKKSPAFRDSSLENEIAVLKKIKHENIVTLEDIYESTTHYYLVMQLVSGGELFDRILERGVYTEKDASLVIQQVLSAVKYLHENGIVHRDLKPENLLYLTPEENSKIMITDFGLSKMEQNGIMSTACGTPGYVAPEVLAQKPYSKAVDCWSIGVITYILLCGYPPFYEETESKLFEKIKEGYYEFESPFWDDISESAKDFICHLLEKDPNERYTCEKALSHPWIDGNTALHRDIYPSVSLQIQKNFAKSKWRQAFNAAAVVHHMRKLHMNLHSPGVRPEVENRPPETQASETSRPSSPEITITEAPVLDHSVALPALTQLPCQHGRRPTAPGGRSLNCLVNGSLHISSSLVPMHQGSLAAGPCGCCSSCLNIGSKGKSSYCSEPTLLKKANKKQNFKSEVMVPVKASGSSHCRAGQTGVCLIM
Procedure: as §1

PIM1 = biological target: T9, PIM1 (Homo sapiens, UniProt P11309); test: DSF
T9 construct: purchased in-house DSF panel (SGC Frankfurt)
T9 sequence (P11309 whole entry): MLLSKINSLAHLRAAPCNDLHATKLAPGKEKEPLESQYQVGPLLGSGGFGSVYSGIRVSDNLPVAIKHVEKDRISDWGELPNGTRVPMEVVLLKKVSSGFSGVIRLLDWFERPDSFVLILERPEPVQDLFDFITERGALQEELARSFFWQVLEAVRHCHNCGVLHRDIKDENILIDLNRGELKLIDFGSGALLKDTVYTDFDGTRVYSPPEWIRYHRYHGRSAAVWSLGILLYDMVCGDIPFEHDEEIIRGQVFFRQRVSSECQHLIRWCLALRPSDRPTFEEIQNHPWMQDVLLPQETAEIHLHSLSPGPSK
Procedure: as §2

STK6 = biological target: T10, STK6 (Homo sapiens, UniProt O14965); test: DSF
T10 construct: purchased in-house DSF panel (SGC Frankfurt)
T10 sequence (O14965 122-403): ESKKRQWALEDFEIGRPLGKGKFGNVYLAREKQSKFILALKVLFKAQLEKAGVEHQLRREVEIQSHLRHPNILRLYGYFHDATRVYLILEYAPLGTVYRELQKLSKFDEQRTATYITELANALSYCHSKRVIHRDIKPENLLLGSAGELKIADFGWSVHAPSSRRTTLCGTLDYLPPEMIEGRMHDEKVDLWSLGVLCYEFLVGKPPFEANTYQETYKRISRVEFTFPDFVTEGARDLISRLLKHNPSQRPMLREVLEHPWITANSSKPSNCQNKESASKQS
Procedure: as §2

[1] = system: in-house panel of 89–105 kinases; test: DSF selectivity screen
Description: To investigate the selectivity profile of the different series, a differential scanning fluorimetry (DSF) assay was used. This assay offers a rapid and sensitive screening method that determines the denaturation temperature of a protein in absence and presence of a compound. This assay format measures the fluorescence of a dye, which depends on the folding state of the protein. The difference between the melting temperature (ΔTm) in the absence and presence of the compound represents the binding strength to the protein. We used an in-house panel of 89–105 kinases to screen all synthesized inhibitors (Tables S1–S3).
Measurements were performed in duplicates.

Row | Structure (SMILES) | ΔTm MAP2K4 (MAP2K4) [°C] | ΔTm SRC (SRC) [°C] | ΔTm FGFR2 (FGFR2) [°C] | ΔTm MAPK9 (MAPK9) [°C] | ΔTm STK17B (STK17B) [°C] | ΔTm DYRK2 (DYRK2) [°C] | ΔTm GAK (GAK) [°C] | ΔTm CAMK1G (CAMK1G) [°C] | ΔTm PIM1 (PIM1) [°C] | ΔTm STK6 (STK6) [°C] | kinases beside CDK16 with DSF shift >5 °C (potential off-targets) [1] | Kinases with shifts > 5°C ([1]; number of kinases of the DSF panel)
1 | COC(=O)c1cc(Nc2ccnc(NCCOCCNC(=O)OC(C)(C)C)n2)[nH]n1 [21d, methyl 5-((2-((2-(2-((tert-butoxycarbonyl)amino)ethoxy)ethyl)amino)pyrimidin-4-yl)amino)-1H-pyrazole-3-carboxylate] | 0.9 | 0.5 | 1.5 | 1.1 | 1.6 | 2.1 | 2.1 | 0.4 | 2.1 | 3.2 |  | 
2 | N#CCc1ccc(Nc2nccc(Nc3cc(C4CC4)[nH]n3)n2)cc1 [compound 1, reference compound] | 10.0 | 4.4 | 5.9 | 6.5 | 9.7 | 11.0 | 8.0 | 5.5 | 3.3 | 14.3 |  | 
3 | CC(C)(C)OC(=O)Nc1ccc(CNc2nccc(Nc3cc(C(=O)OC(C)(C)C)[nH]n3)n2)cc1 [43d, tert-butyl 3-((2-((4-((tert-butoxycarbonyl)amino)benzyl)amino)pyrimidin-4-yl)amino)-1H-pyrazole-5-carboxylate] | 1.0 | 0.6 | 0.3 | -1.4 | -2.5 | 0.8 | -4.1 | -0.7 | -0.7 | 4.0 | 1–2 and 2 | 
4 | COC(=O)c1cc(Nc2ccnc(NCc3ccc(NC(=O)OC(C)(C)C)cc3)n2)[nH]n1 [21i, methyl 5-((2-((4-((tert-butoxycarbonyl)amino)benzyl)amino)pyrimidin-4-yl)amino)-1H-pyrazole-3-carboxylate] | 2.4 | 0.6 | 0.2 | 1.7 | 3.4 | 1.1 | 1.3 | 0.4 | -0.6 | 4.6 |  | 4–9
5 | CC(C)OC(=O)c1cc(Nc2ccnc(NCc3ccc(NC(=O)OC(C)(C)C)cc3)n2)n[nH]1 [42d, isopropyl 3-((2-((4-((tert-butoxycarbonyl)amino)benzyl)amino)pyrimidin-4-yl)amino)-1H-pyrazole-5-carboxylate] | 0.4 | 0.4 | 0.1 | -0.7 | -2.8 | 0.5 | -0.9 | -0.2 | 0.2 | 3.4 | 1–2 and 1 | 
